≈ marks a conversion by molar mass, not a printed value.
Columns and labels:
Assay type in all cases: cell-based
[1] = system: Candida albicans 90028; test: In vitro antifungal assay (Example IX), microdilution broth, MIC; conditions: minimum inhibitory concentration (≥50% inhibition), 35° C., 40-48 h, RPMI1640
Procedure: Measurement of antifungal activity: Antifungal activity of the compounds was evaluated in a microdilution broth assay as per Clinical and Laboratory Standard Institute methodology for yeast (for Candida and Cryptococcus) (1) and molds (for Aspergillus and Rhizomucor) (2). Candida albicans 90028, Aspergillus fumigatus MYA3626, Rhizomucor pusillus 46342 and Cryptococcus neoformans H99 strains were obtained from American Type Culture Collection (ATCC).
Preparation of Fungal Suspension. C. albicans 90028 and C. neoformans H99 strains were streaked from frozen stocks at −80° C. onto Sabouraud Dextrose Agar (SDA) plates. These were allowed to grow for 24 h (C. albicans) and 48 h (C. neoformans) at 35° C. before using them in the assay. 5-6 individual colonies were picked and diluted into sterile water to obtain a fungal suspension. The cell density of the suspension was determined and the culture diluted with RPMI1640 medium to obtain a fungal suspension of 2.5×10^3 cells/mL. The suspension was used in the MIC measurement as described below.
Preparation of Compound Stocks and Intermediate Dilutions: The compounds were weighed and DMSO was added to prepare a 10 mg/mL stock. The solutions were mixed by vortexing and sonication at 37° C. for 5-10 mins. The resulting solutions were sterile filtered using a PTFE filter, and aliquoted (12 μL or as needed) and stored at −20° C. Intermediate compound dilutions were prepared in sterile polypropylene tubes in 100% DMSO. The compound stock solution was first diluted in DMSO to obtain a concentration of […] to 0.19 μg/mL.
MIC/MEC Measurement: 99 μL 1 of the fungal suspension in RPMI1640 prepared as above was added to each well of a 96-well round bottom assay plate. 1 μL of the intermediate compound dilutions (200-0.19 μg/mL) were added to wells of the plate. This led to a 100-fold dilution of the intermediate dilutions resulting in a final compound concentration of 2-0.0019 μg/mL in the plate. 1 μL of DMSO was added to “No drug” control wells. The solutions were mixed by shaking on a plate shaker for 10 mins and plates incubated at 35° C. for 40-48 h (C. albicans, A. fumigatus, R. pusillus) and 72 h (Cryptococcus). […] This was validated by thorough mixing and reading at 600 nm on a microplate reader. The minimum concentration that led to shortening of hyphae as compared to hyphal growth in DMSO control wells was determined as the minimum effective concentration (MEC) for A. fumigatus and R. pusillus (as read for echinocandins). The use of the MIC and MEC endpoints against yeasts and molds, respectively has been described by Pfaller M A, Duncanson F, Messer S A, Moet G J, Jones R N, Castanheira M. Antimicrob Agents Chemother. 2011. 55(11):5155-8. In vitro activity of a novel broad-spectrum antifungal, E1210, tested against Aspergillus spp. determined by CLSI and EUCAST broth microdilution methods. Results are shown in Table 2, and the letters indicate the following ranges in μg/mL: […]

[2] = system: Aspergillus fumigatus MYA3626; test: In vitro antifungal assay (Example IX), microdilution broth, MEC; conditions: minimum effective concentration (shortening of hyphae), 35° C., 40-48 h, RPMI1640
Procedure: (§1) Measurement of antifungal activity: […] Candida albicans 90028, Aspergillus fumigatus MYA3626, Rhizomucor pusillus 46342 and Cryptococcus neoformans […] strains were obtained from American Type Culture Collection (ATCC). […] (A. fumigatus) and 35° C. (R. pusillus). Water containing 1% Tween was directly added to the agar plate and gently agitated to wet and remove the Aspergillus conidia. For R. pusillus, water was added to the surface and gently massaged to wet and remove the spores. For both species, the conidia or spores and mycelial fragments were collected, followed by removal of mycelium, conidiophores and large clumps of conidia/spores. The resulting spore suspension was counted and diluted into RPMI1640 medium to adjust to a final suspension of 1-2×10^4 spores/mL. The suspension was used in the MEC measurement as described below. […] The compounds were weighed and DMSO was added to prepare a 10 mg/mL stock. The solutions were mixed by vortexing and sonication at 37° C. for 5-10 mins. The resulting solutions were sterile filtered using a PTFE filter, and aliquoted (12 μL or as needed) and stored at -20° C. Intermediate compound dilutions were prepared in sterile polypropylene tubes in 100% DMSO. […] This was validated by thorough mixing and reading at 600 nm on a microplate reader. The minimum concentration that led to shortening of hyphae as compared to hyphal growth in DMSO control wells was determined as the minimum effective concentration (MEC) for A. fumigatus and R. pusillus (as read for echinocandins). The use of the MIC and MEC endpoints against yeasts and molds, respectively has been described by Pfaller M A, Duncanson F, Messer S A, Moet G J, Jones […]. Antimicrob Agents Chemother. 2011. 55(11):5155-8. In vitro activity of a novel broad-spectrum antifungal, […], tested against Aspergillus spp. determined by CLSI and EUCAST broth microdilution methods. Results are shown in Table 2, and the letters indicate the following ranges in μg/mL: […]

[3] = system: Rhizomucor pusillus 46342; test: as above; conditions: minimum effective concentration (shortening of hyphae), 35° C., 40-48 h, RPMI1640
Procedure: as §1

MIC [1] [µg/mL]	Structure (SMILES)	minimal effective concentration [2] [µg/mL]	minimal effective concentration [3] [µg/mL]
0.1 to 1 (≈ 0.281 to 2.81 µM)	N#Cc1cnn(Cc2ccc(Cc3cc(-c4cccnc4N)on3)cc2)c1 [compound 3, 1-(4-((5-(2-aminopyridin-3-yl)isoxazol-3-yl)methyl)benzyl)-1H-pyrazole-4-carbonitrile]	0.1 to 1	> 1
> 1	Nc1ncccc1-c1cc(Cc2ccc(CNc3ncns3)cc2)no1 [compound 6, N-(4-((5-(2-aminopyridin-3-yl)isoxazol-3-yl)methyl)benzyl)-1,2,4-thiadiazol-5-amine]	> 1	> 1
0.1 to 1 (≈ 0.252 to 2.52 µM)	Nc1ncccc1-c1cc(Cc2ccc(CNc3cnc4[nH]ccc4c3)cc2)no1 [compound 7, N-(4-((5-(2-aminopyridin-3-yl)isoxazol-3-yl)methyl)benzyl)-1H-pyrrolo[2,3-b]pyridin-5-amine]	0.1 to 1	> 1
0.1 to 1 (≈ 0.261 to 2.61 µM)	Nc1ncccc1-c1cc(Cc2ccc(Cc3ccc4ncnn4c3)cc2)no1 [compound 13, 3-(3-(4-([1,2,4]triazolo[1,5-a]pyridin-6-ylmethyl)benzyl)isoxazol-5-yl)pyridin-2-amine]	0.1 to 1	> 1
0.1 to 1 (≈ 0.258 to 2.58 µM)	CC(C)Cn1cc(Cc2ccc(Cc3cc(-c4cccnc4N)on3)cc2)cn1 [compound 16, 3-(3-(4-((1-isobutyl-1H-pyrazol-4-yl)methyl)benzyl)isoxazol-5-yl)pyridin-2-amine]	0.1 to 1	0.1 to 1
0.1 to 1 (≈ 0.291 to 2.91 µM)	Nc1ncccc1-c1cc(Cc2ccc(Cc3cncnc3)cc2)no1 [compound 21, 3-(3-(4-(pyrimidin-5-ylmethyl)benzyl)isoxazol-5-yl)pyridin-2-amine]	0.1 to 1	> 1
> 1	Nc1ncccc1-c1cc(Cc2ccc(COc3cccc4ccccc34)cc2)no1 [compound 24, 3-(3-(4-((naphthalen-1-yloxy)methyl)benzyl)isoxazol-5-yl)pyridin-2-amine]	> 1	> 1
> 1	Nc1ncccc1-c1cc(Cc2ccc(COc3ccc(Cl)c4ccccc34)cc2)no1 [compound 25, 3-(3-(4-(((4-chloronaphthalen-1-yl)oxy)methyl)benzyl)isoxazol-5-yl)pyridin-2-amine]	> 1	> 1
0.1 to 1 (≈ 0.268 to 2.68 µM)	Cc1cnc(COc2ccc(Cc3cc(-c4cccnc4N)on3)cc2)nc1 [compound 29, 3-(3-(4-((5-methylpyrimidin-2-yl)methoxy)benzyl)isoxazol-5-yl)pyridin-2-amine]	0.1 to 1	> 1
> 1	Cc1nccc(NCc2ccc(Cc3cc(-c4cccnc4N)on3)cc2)n1 [compound 33, N-(4-((5-(2-aminopyridin-3-yl)isoxazol-3-yl)methyl)benzyl)-2-methylpyrimidin-4-amine]	> 1	> 1
0.1 to 1 (≈ 0.296 to 2.96 µM)	Nc1ncccc1-c1cc(Cc2ccc(OCC3COC3)nc2)no1 [compound 44, 3-(3-((6-(oxetan-3-ylmethoxy)pyridin-3-yl)methyl)isoxazol-5-yl)pyridin-2-amine]	> 1	> 1
0.1 to 1 (≈ 0.276 to 2.76 µM)	Cn1ccc(COc2ccc(Cc3cc(-c4cccnc4N)on3)cn2)n1 [compound 45, 3-(3-((6-((1-methyl-1H-pyrazol-3-yl)methoxy)pyridin-3-yl)methyl)isoxazol-5-yl)pyridin-2-amine]	0.1 to 1	> 1
> 1	Cn1cc(COc2ccc(Cc3cc(-c4cccnc4N)on3)cn2)cn1 [compound 49, 3-(3-((6-((1-methyl-1H-pyrazol-4-yl)methoxy)pyridin-3-yl)methyl)isoxazol-5-yl)pyridin-2-amine]	> 1	> 1

Source: patent publication US11512079B2, “Heterocycle substituted pyridine derivative antifungal agents” (Amplyx Pharmaceuticals, Inc., priority 2017, dated 2022)
